{"source": "patent US12233060B2", "about": "“Inhibitors of Ataxia-Telangiectasia Mutated and Rad3-related protein kinase (ATR) for use in methods of treating cancer” (THE INSTITUTE OF CANCER RESEARCH: ROYAL CANCER HOSPITAL, priority 2016, dated 2025)", "key": {"[1]": {"test_system": "Arid1a+/+ and Arid1a−/− mouse embryonic stem (ES) cells", "assay": "Clonogenic survival of mouse Arid1a isogenic ES cells", "type": "cell-based", "details": "p<0.001 ANOVA", "procedure": "FIG. 2. In vitro ARID1A/ATR synthetic lethality. A. Chemical structure of VX-970. B. Western blot of ARID1A in human ARID1A isogenic HCT116 cells. C. Image of colonies in 6 well-plate clonogenic assay. HCT116 ARID1A isogenic (^+/+ and ^−/−) cell lines were exposed to increasing concentrations of the VE-821 (0, 0.1, 1 uM) and VX-970 (0, 0.01, 0.05 uM) for 14 days. D and E. Dose response clonogenic survival curve of HCT116 ARID1A isogenic (^+/+ and ^−/−) cell lines exposed to increasing concentrations of the VE-821 and VX-970 for 14 days. Error bars represent SD from triplicate experiments, ANOVA p-value of <0.0001. F. Area under curve (AUC) box whisker comparison plot for human tumor cell lines exposed to VX-970 for five days. ARID1A wild type tumor cell lines (n=15) were compared to ARID1A mutant cell lines (n=9). Student's t-test p=0.00594. G. Dose response clonogenic survival curve of mouse Arid1a isogenic ES cell lines. Experiment was performed as per (C). Error bars represent SD from triplicate experiments, ANOVA p value of <0.0001. H. Western blot of Arid1a protein expression in mouse ES Arid1a isogenic cells. […]\nShort-term survival assays were performed in 384-well plates. […] Drug was added 24 h after seeding and cells were continuously exposed to the drug for five days, after which cell viability was estimated using CellTitre-Glo luminescence (Promega). […] Colonies were counted manually. […]"}, "[2]": {"test_system": "HCT116 ARID1A+/+ and ARID1A−/− cells", "assay": "PARP cleavage western blot", "type": "cell-based, human", "details": "24 hours exposure; camptothecin 1 uM positive control", "procedure": "FIG. 3. In vivo ARID1A/ATR synthetic lethality. A. Schematic of VX-970 therapy experiment in mice bearing established HCT116 ARID1A^+/+ and ARID1A^−/− xenografts. Cells were inoculated subcutaneously into nude mice and tumors allowed to establish for 10 days. Mice were then randomized to treatment regimens of either VX-970 (60 mg/kg, 4× weekly by oral gavage) or vehicle. Mice were then treated for a subsequent 40 days. Tumor volume was monitored twice weekly. B. Relative tumor volume plot from (A) showing efficacy of VX-970 and selectivity for ARID1A^−/− xenografts* p=0.024, ANOVA. C. Schematic of tumor incidence experiment in mice with non-established HCT116 ARID1A^+/+ and ARID1A^−/− xenografts. […] Tumor volume was monitored twice weekly and overall tumour incidence was assessed 40 days later. […] PARP-1, cleaved PARP-1 (85 kDa fragment) and tubulin were detected by western blot. […] Caspase3/7 activity was assessed using Caspase-Glo and total cellular viability was estimated using CellTitre-Glo. Luminescence ratios for Caspase-Glo (i.e. apoptotic cells) and CellTitre-Glo (ie viable cells) was determined for each dose and normalized to DMSO treated samples. *Student's t-test, p<0.05. […]\nFIG. 5. […] The percentage of cells in G2/M was measured by FACS following PI staining. […] A minimum of 50 anaphases were scored in 3 biological replicate experiments. *p=0.023, Student's t-test. […]"}}}
{"smiles": "CNCc1ccc(-c2cc(-c3nc(-c4ccc(S(=O)(=O)C(C)C)cc4)cnc3N)on2)cc1", "note": "[VX-970, 5-[4-(Isopropylsulfonyl)phenyl]-3-(3-{4-[(methylamino)methyl]phenyl}-1,2-oxazol-5-yl)-2-pyrazinamine]", "values": [{"measurement": "selective targeting of Arid1a−/− ES cells in clonogenic assays", "setting": "[1]", "result": "selectively targeted Arid1a^−/− ES cells"}, {"measurement": "PARP-cleavage, ARID1A−/− vs ARID1A+/+", "setting": "[2]", "result": "far higher levels of PARP-cleavage"}]}
